Some test systems named below: HT29 colon; MCF7 breast; SNB-19 CNS; CCRF-CEM leukemia; NCI-H460 lung; HCT-15 colon; OVCAR-4 ovarian; SF-539 CNS; SNB-75 CNS; OVCAR-3 ovarian.
What all share (experiment): NCI-60 cell line screen, 48 h

Several values for one entry are separate records, joined by “and”; a condition that tells them apart may be missing. Equal values may be shown once.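 Cultured in 96-well plates, cells were exposed to test compound for 48 hours across five concentrations. The concentration for 50% growth inhibition is given as GI50. TGI: concentration producing complete growth inhibition.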

On to `N#Cc1c(-c2ccc(F)cc2)c(-c2ccc(F)cc2)nn(CCO)c1=O`, for which the TGI was greater than 22.9 µM in the experiment on HT29 colon; greater than 100 µM with MCF7 breast; greater than 100 µM with SNB-19 CNS; 24.9 µM in the experiment with CCRF-CEM leukemia; greater than 25.1 µM with NCI-H460 lung; 8.6 µM in the experiment with HCT-15 colon. The TGI in the experiment on OVCAR-4 ovarian is greater than 100 µM; in the experiment with SF-539 CNS, 0.553 µM; in the experiment with SNB-75 CNS, 16.9 µM; in the experiment with OVCAR-3 ovarian, 0.69 µM.
As for `O=c1cc(-c2ccccc2)[nH]c2c(S)cccc12`, the TGI in the experiment on HT29 colon, with MCF7 breast, with SNB-19 CNS, in the experiment with CCRF-CEM leukemia, in the experiment with NCI-H460 lung and with HCT-15 colon was greater than 100 µM each time. For the same compound, the TGI in the experiment with OVCAR-4 ovarian, in the experiment on SF-539 CNS, with SNB-75 CNS and with OVCAR-3 ovarian was greater than 100 µM in each case.
As for `C1CSCCSCCS1`, the TGI in the experiment on HT29 colon, in the experiment on MCF7 breast, with SNB-19 CNS, in the experiment on CCRF-CEM leukemia, in the experiment on NCI-H460 lung and with HCT-15 colon was greater than 100 µM throughout. For the same compound, the TGI in the experiment with OVCAR-4 ovarian, with SF-539 CNS, in the experiment with SNB-75 CNS and in the experiment with OVCAR-3 ovarian was greater than 100 µM throughout.
In the case of `COc1cccc2c1C(=O)c1c(O)c3c(c(O)c1C2=O)CC(O)(/C(C)=N/NC(=O)CCC(=O)N/N=C(\C)C1(O)Cc2c(O)c4c(c(O)c2C(OC2CC(N)C(O)C(C)O2)C1)C(=O)c1c(OC)cccc1C4=O)CC3OC1CC(N)C(O)C(C)O1` (configuration not stated), the GI50 in the experiment with HT29 colon was 0.333 µM; in the experiment on MCF7 breast it was 0.0676 µM; with SNB-19 CNS, 0.198 µM; with CCRF-CEM leukemia it was 0.113 µM; in the experiment with NCI-H460 lung, 0.0981 µM; in the experiment with HCT-15 colon it was 3.51 µM. In addition, the GI50 was 0.885 µM with OVCAR-4 ovarian, 0.179 µM in the experiment on SF-539 CNS, 0.222 µM in the experiment with SNB-75 CNS and 0.259 µM in the experiment on OVCAR-3 ovarian. The TGI in the experiment with HT29 colon was greater than 10.5 µM; in the experiment on MCF7 breast it was 7.41 µM; in the experiment on SNB-19 CNS, 1.38 µM; in the experiment on CCRF-CEM leukemia it was 7.17 µM; in the experiment with NCI-H460 lung, 0.947 µM; with HCT-15 colon, greater than 50 µM. The TGI was greater than 21.4 µM with OVCAR-4 ovarian, 0.859 µM with SF-539 CNS, 2.01 µM in the experiment with SNB-75 CNS and 2.66 µM in the experiment on OVCAR-3 ovarian.
For `CCCn1c(N)c(C(=O)N/N=C(/C)c2cc3cccc(OC)c3o2)sc1=S`, the GI50 in the experiment with HT29 colon was 16.4 µM; in the experiment with MCF7 breast, 28 µM; in the experiment on SNB-19 CNS it was 30.2 µM; in the experiment with CCRF-CEM leukemia, 30.7 µM; in the experiment on NCI-H460 lung, 17.7 µM; in the experiment on HCT-15 colon, 22.1 µM. In addition, the GI50 with OVCAR-4 ovarian is 49.7 µM; in the experiment with SF-539 CNS it was 17.1 µM; with SNB-75 CNS, 30.1 µM; in the experiment on OVCAR-3 ovarian it was 30.1 µM. For the same compound, the TGI in the experiment on HT29 colon, in the experiment on MCF7 breast, in the experiment on SNB-19 CNS, in the experiment on CCRF-CEM leukemia, in the experiment on NCI-H460 lung and with HCT-15 colon was greater than 100 µM in each case. Moreover, the TGI was greater than 100 µM in the experiment on OVCAR-4 ovarian, 90.7 µM in the experiment on SF-539 CNS, 82.3 µM in the experiment on SNB-75 CNS and greater than 100 µM with OVCAR-3 ovarian.
As to `N#C/C=C(\c1ccc([N+](=O)[O-])cc1)n1nnc2cc(Cl)c(Cl)cc21`, the GI50 is 2.05 µM in the experiment with HT29 colon; 0.738 µM in the experiment with MCF7 breast; 2.37 µM in the experiment with SNB-19 CNS; 2.31 µM in the experiment with CCRF-CEM leukemia; 2.36 µM in the experiment on NCI-H460 lung; 1.85 µM with HCT-15 colon. Besides, the GI50 is 1.54 µM in the experiment with OVCAR-4 ovarian, 1.77 µM in the experiment on SF-539 CNS, 2.13 µM in the experiment on SNB-75 CNS and 1.88 µM in the experiment on OVCAR-3 ovarian. The TGI in the experiment with HT29 colon is 4.23 µM; in the experiment with MCF7 breast, 3.32 µM; in the experiment on SNB-19 CNS, 7.14 µM; in the experiment on CCRF-CEM leukemia, 29.4 µM; in the experiment on NCI-H460 lung, 6.98 µM; in the experiment on HCT-15 colon it was 5.36 µM. Further, the TGI in the experiment on OVCAR-4 ovarian was found to be 2.89 µM; in the experiment on SF-539 CNS, 3.26 µM; in the experiment with SNB-75 CNS, 8.11 µM; with OVCAR-3 ovarian, 3.91 µM.
On to `O=C(c1ccc(F)c(F)c1Nc1ccc(I)cc1F)N1CC(O)([C@@H]2CCCCN2)C1`, for which the GI50 in the experiment on HT29 colon is < 0.01 µM and 0.00367 µM; in the experiment with MCF7 breast it was 6.56 µM and > 10 µM; with SNB-19 CNS it was 1.59 µM and 0.56 µM; in the experiment on CCRF-CEM leukemia, 10.2 µM and > 10 µM; with NCI-H460 lung it was 2.92 µM and 2.42 µM; in the experiment on HCT-15 colon, 1.22 µM and 1.92 µM. The GI50 in the experiment with OVCAR-4 ovarian was 0.58 µM and > 3.96 µM; in the experiment on SF-539 CNS it was 3.22 µM and > 9.01 µM; with SNB-75 CNS it was 2.85 µM and 0.574 µM; in the experiment on OVCAR-3 ovarian, 9.85 µM and > 10 µM. The TGI in the experiment on HT29 colon was 11 µM and > 10 µM; with MCF7 breast, 20.1 µM and > 10 µM; in the experiment with SNB-19 CNS it was 21.1 µM and > 10 µM; in the experiment with CCRF-CEM leukemia it was 26.7 µM and > 10 µM; with NCI-H460 lung, 17.9 µM and > 10 µM; with HCT-15 colon it was 16.8 µM and > 10 µM. For the same compound, the TGI was 17.1 µM and > 10 µM in the experiment on OVCAR-4 ovarian; 18.5 µM and > 10 µM in the experiment on SF-539 CNS; 16 µM and > 10 µM in the experiment on SNB-75 CNS; 22.8 µM and > 10 µM with OVCAR-3 ovarian.
Turning to `O=c1cc2oc3cc(O)c(O)cc3c(-c3ccccc3O)c-2cc1O`, the GI50 is 44.4 µM in the experiment with HT29 colon; 18.4 µM in the experiment with MCF7 breast; 9.65 µM with SNB-19 CNS; 7.29 µM with CCRF-CEM leukemia; 21.5 µM in the experiment with NCI-H460 lung; 38.3 µM in the experiment with HCT-15 colon. Further, the GI50 is 11.5 µM with OVCAR-4 ovarian, 6.16 µM in the experiment on SF-539 CNS, 3.81 µM in the experiment with SNB-75 CNS and 9.41 µM in the experiment on OVCAR-3 ovarian. Also, the TGI was greater than 100 µM in the experiment on HT29 colon; greater than 100 µM in the experiment with MCF7 breast; greater than 100 µM in the experiment with SNB-19 CNS; greater than 100 µM with CCRF-CEM leukemia; 82.6 µM with NCI-H460 lung; greater than 100 µM in the experiment with HCT-15 colon. Moreover, the TGI with OVCAR-4 ovarian, with SF-539 CNS, with SNB-75 CNS and with OVCAR-3 ovarian was greater than 100 µM each time.
As to `N=c1ccn2c(n1)OC1C(O)C(CO)OC12` (configuration not stated), the GI50 in the experiment with HT29 colon was 6.23 µM; in the experiment with MCF7 breast, 0.0703 µM; with CCRF-CEM leukemia it was 0.102 µM and 0.0335 µM; in the experiment on NCI-H460 lung, 0.242 µM; with OVCAR-4 ovarian it was greater than 100 µM; in the experiment with SF-539 CNS it was 31.9 µM. Further, the GI50 in the experiment with SNB-75 CNS was greater than 100 µM; in the experiment on OVCAR-3 ovarian it was 163 µM and 99.6 µM. The TGI was greater than 1000 µM with HT29 colon; 361 µM and > 100 µM in the experiment on MCF7 breast; greater than 480 µM with SNB-19 CNS; 92.2 µM in the experiment on CCRF-CEM leukemia; 168 µM and > 100 µM in the experiment on NCI-H460 lung; greater than 1000 µM in the experiment with HCT-15 colon. Further, the TGI with OVCAR-4 ovarian, with SF-539 CNS, in the experiment with SNB-75 CNS and in the experiment with OVCAR-3 ovarian was greater than 1000 µM each time.
As to `C=CC(=O)N1CCC(C2CCNc3c(C(N)=O)c(-c4ccc(Oc5ccccc5)cc4)nn32)CC1` (configuration not stated), the GI50 in the experiment with HT29 colon was 16.6 µM; in the experiment with MCF7 breast it was 12.3 µM; with SNB-19 CNS, 14.4 µM; in the experiment on CCRF-CEM leukemia, 24.8 µM; in the experiment on NCI-H460 lung, 31.4 µM; with HCT-15 colon it was 14.9 µM. Moreover, the GI50 in the experiment on OVCAR-4 ovarian is 6.25 µM; in the experiment with SF-539 CNS it was 13.5 µM; in the experiment with SNB-75 CNS, 8.31 µM; in the experiment on OVCAR-3 ovarian, 12.2 µM. The TGI was 55.8 µM in the experiment on HT29 colon; 59.4 µM in the experiment with MCF7 breast; greater than 100 µM in the experiment with SNB-19 CNS; greater than 100 µM in the experiment with CCRF-CEM leukemia; greater than 100 µM in the experiment with NCI-H460 lung; 46.3 µM in the experiment on HCT-15 colon. Further, the TGI in the experiment with OVCAR-4 ovarian was found to be 95.4 µM; with SF-539 CNS it was 43 µM; in the experiment with SNB-75 CNS, 38.6 µM; with OVCAR-3 ovarian, 56.2 µM.
As for `CCN(CC)CCOc1ccc(/C=C2\CC3C4CC=C5C[C@@H](O)CC[C@]5(C)C4CC[C@]3(C)C2=O)cc1OC` (some centres not stated), the GI50 was 2.29 µM with HT29 colon; 9.6 µM in the experiment on MCF7 breast; 4.67 µM in the experiment on SNB-19 CNS; 5.42 µM in the experiment with NCI-H460 lung; 2.27 µM with HCT-15 colon; 18.8 µM in the experiment on OVCAR-4 ovarian. Besides, the values for the GI50 in the experiment on SF-539 CNS, with SNB-75 CNS and in the experiment on OVCAR-3 ovarian were 3.38 µM, 15.6 µM and 1.71 µM, respectively. Also, the TGI in the experiment on HT29 colon was greater than 100 µM; in the experiment on MCF7 breast, 54.5 µM; in the experiment with SNB-19 CNS, greater than 64 µM; in the experiment with CCRF-CEM leukemia, greater than 22 µM; with NCI-H460 lung, greater than 53 µM; in the experiment on HCT-15 colon it was 6.19 µM. In addition, the TGI was found to be 45.9 µM with OVCAR-4 ovarian, 12.7 µM in the experiment with SF-539 CNS, 34.8 µM in the experiment on SNB-75 CNS and 9.04 µM in the experiment with OVCAR-3 ovarian.
For the compound `COc1c(OC)c(OC)c(C(=O)/C=C/c2ccccc2)c(OC)c1OC`, the TGI in the experiment on HT29 colon came out at 15.1 µM; with MCF7 breast it was 24.1 µM; with SNB-19 CNS it was 25.1 µM; in the experiment on CCRF-CEM leukemia, 18.1 µM; in the experiment with NCI-H460 lung it was 21.9 µM; with HCT-15 colon it was 23 µM. Besides, the TGI in the experiment on OVCAR-4 ovarian is 30.7 µM; in the experiment with SF-539 CNS it was 30.9 µM; in the experiment on SNB-75 CNS, 23.1 µM; in the experiment on OVCAR-3 ovarian, 25.1 µM.

These data come from PubChem BioAssay (NCI).
